Experimental data as given in paper PMC7385629 (Scientific Reports, 2020).

Assays:
[1] = target: T1, CTAT (Leishmania donovani, UniProt A0A3Q8INT3); test: UV absorption scan […]-500 nm, aldimine bond formation; type: binding; conditions: 4 mM PLP; 0.5 and 1 mg/ml protein; 25 °C; 30 min; covalent, internal aldimine at K286
T1 construct: gene LdCL_360030600; C-terminal 60 residues (180 bp) deleted; printed 389 aa (1,167 bp; end may be 388); two His-tags (N and C) from pET28a(+), about 45 kDa on gel, E. coli BL21, Ni-NTA
T1 sequence (A0A3Q8INT3 entry or part of it): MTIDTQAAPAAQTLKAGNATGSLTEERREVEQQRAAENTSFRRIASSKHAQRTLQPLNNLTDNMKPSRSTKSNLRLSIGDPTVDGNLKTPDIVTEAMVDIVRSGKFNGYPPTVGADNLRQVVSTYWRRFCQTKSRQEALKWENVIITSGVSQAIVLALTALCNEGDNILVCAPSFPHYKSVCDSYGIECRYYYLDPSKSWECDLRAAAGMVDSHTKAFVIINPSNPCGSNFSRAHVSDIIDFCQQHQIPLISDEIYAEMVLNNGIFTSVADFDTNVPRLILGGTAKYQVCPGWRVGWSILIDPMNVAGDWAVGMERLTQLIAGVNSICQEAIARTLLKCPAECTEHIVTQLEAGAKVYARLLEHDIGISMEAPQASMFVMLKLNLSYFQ

[2] = target: T2, NTAT (Leishmania donovani, UniProt A0A3Q8INT3); test: as above; type: binding; set-up: gene LdCL_360030600; N-terminal 60 residues (180 bp) deleted, starts T61, runs to native C-terminus; His-tag from pET28a(+), E. coli BL21, Ni-NTA; parent gene 1,347 bp; conditions: 4 mM PLP; 0.5 and 1 mg/ml protein; 25 °C; 30 min; covalent, internal aldimine at K286
T2 sequence (A0A3Q8INT3 entry or part of it): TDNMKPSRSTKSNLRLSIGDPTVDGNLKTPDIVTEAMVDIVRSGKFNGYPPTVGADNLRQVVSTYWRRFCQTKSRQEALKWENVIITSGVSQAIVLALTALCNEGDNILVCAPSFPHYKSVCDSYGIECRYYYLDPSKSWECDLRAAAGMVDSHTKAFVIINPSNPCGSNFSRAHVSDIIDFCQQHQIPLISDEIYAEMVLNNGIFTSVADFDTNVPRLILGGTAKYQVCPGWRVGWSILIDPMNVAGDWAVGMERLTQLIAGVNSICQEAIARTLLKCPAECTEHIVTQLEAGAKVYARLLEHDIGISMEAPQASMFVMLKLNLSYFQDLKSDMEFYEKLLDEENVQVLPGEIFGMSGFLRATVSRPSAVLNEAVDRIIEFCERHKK

[3] = target: T2, NTAT; set-up: gene LdCL_360030600; conditions: co-substrate sodium pyruvate 100 mM; 30 µM PLP; pH 8; 37 °C; tyrosine 0-7 mM; apparent

SMILES	UV absorption scan 300-500 nm, aldimine bond formation [1]	UV absorption scan 300-500 nm, aldimine bond formation [2]	Km [3]
Cc1ncc(COP(=O)(O)O)c(C=O)c1O [PLP]	In CTAT, the PLP binding was higher than NTAT	The increase in the concentration of NTAT or CTAT bound more PLP and formed aldimine bonds	–
N[C@@H](Cc1ccc(O)cc1)C(=O)O [tyrosine]	–	–	3.47 ± 0.796 mM
